Reference: ChEMBL document CHEMBL1201862, “PubChem BioAssay data set” (2004)
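Each compound was tested at five concentrations against cells in 96-well plates for 48 hours. GI50 marks 50% less growth.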 Active and inactive are the calls of the source. Rule as the data show it: active = GI50 up to about 1.1 µM and inactive = higher.

Key:
Experiment in all cases: NCI anticancer screen, dose series, 48 h
HCT-116 = test system: HCT-116
SF-539 = test system: SF-539
UACC-257 = test system: UACC-257
U-251 = test system: U-251
PC-3 = test system: PC-3
NCI-H522 = test system: NCI-H522
MDA-MB-231 = test system: MDA-MB-231
HCT-15 = test system: HCT-15
UO-31 = test system: UO-31
SNB-19 = test system: SNB-19
NCI-H23 = test system: NCI-H23
SN12C = test system: SN12C
SF-295 = test system: SF-295
T47D = test system: T47D
HCC 2998 = test system: HCC 2998
SW-620 = test system: SW-620
NCI-H460 = test system: NCI-H460
OVCAR-8 = test system: OVCAR-8
CCRF-CEM = test system: CCRF-CEM
MOLT-4 = test system: MOLT-4
HT-29 = test system: HT-29
A498 = test system: A498
LOX IMVI = test system: LOX IMVI
MDA-N = test system: MDA-N
MDA-MB-435 = test system: MDA-MB-435
SK-MEL-5 = test system: SK-MEL-5
ACHN = test system: ACHN
SK-MEL-2 = test system: SK-MEL-2
BT-549 = test system: BT-549
M14 = test system: M14
OVCAR-5 = test system: OVCAR-5
COLO 205 = test system: COLO 205
K562 = test system: K562
HOP-92 = test system: HOP-92
SNB-75 = test system: SNB-75
TK-10 = test system: TK-10
OVCAR-3 = test system: OVCAR-3
CAKI-1 = test system: CAKI-1
RPMI-8226 = test system: RPMI-8226
UACC-62 = test system: UACC-62
NCI/ADR-RES = test system: NCI/ADR-RES
IGROV-1 = test system: IGROV-1
MCF7 = test system: MCF7
SK-OV-3 = test system: SK-OV-3
DU-145 = test system: DU-145
OVCAR-4 = test system: OVCAR-4
786-0 = test system: 786-0
KM12 = test system: KM12
EKVX = test system: EKVX
NCI-H226 = test system: NCI-H226
Hs-578T = test system: Hs-578T
Malme-3M = test system: Malme-3M
SK-MEL-28 = test system: SK-MEL-28
SF-268 = test system: SF-268
A549 = test system: A549
HL-60 = test system: HL-60

C[C@@H]1C[C@@]2(O[C@@H]2C)C(=O)O[C@@H]2CCN3CC=C(COC(=O)[C@]1(C)O)[C@H]23
GI50 (HCT-116): > 100 µM (inactive)
GI50 (SF-539): > 100 µM (inactive)
GI50 (UACC-257): > 100 µM (inactive)
GI50 (U-251): > 100 µM (inactive)
GI50 (PC-3): > 100 µM (inactive)
GI50 (NCI-H522): > 100 µM (inactive)
GI50 (MDA-MB-231): > 100 µM (inactive)
GI50 (HCT-15): > 100 µM
GI50 (UO-31): > 100 µM (inactive)
GI50 (SNB-19): > 100 µM (inactive)
GI50 (NCI-H23): > 100 µM (inactive)
GI50 (SN12C): > 100 µM (inactive)
GI50 (SF-295): > 100 µM (inactive)
GI50 (T47D): > 100 µM (inactive)
GI50 (HCC 2998): > 100 µM (inactive)
GI50 (SW-620): > 100 µM (inactive)
GI50 (NCI-H460): > 100 µM (inactive)
GI50 (OVCAR-8): > 100 µM (inactive)
GI50 (CCRF-CEM): > 100 µM (inactive)
GI50 (MOLT-4): > 100 µM (inactive)
GI50 (HT-29): > 100 µM (inactive)
GI50 (A498): > 100 µM (inactive)
GI50 (LOX IMVI): > 100 µM (inactive)
GI50 (MDA-N): > 100 µM (inactive)
GI50 (MDA-MB-435): > 100 µM (inactive)
GI50 (SK-MEL-5): > 100 µM (inactive)
GI50 (ACHN): > 100 µM (inactive)
GI50 (SK-MEL-2): > 100 µM (inactive)
GI50 (BT-549): > 100 µM (inactive)
GI50 (M14): > 100 µM (inactive)
GI50 (OVCAR-5): > 100 µM (inactive)
GI50 (COLO 205): > 100 µM (inactive)
GI50 (K562): > 100 µM (inactive)
GI50 (HOP-92): 10.7 µM (inactive)
GI50 (SNB-75): > 100 µM (inactive)
GI50 (TK-10): > 100 µM (inactive)
GI50 (OVCAR-3): > 100 µM (inactive)
GI50 (CAKI-1): > 100 µM (inactive)
GI50 (RPMI-8226): > 100 µM (inactive)
GI50 (UACC-62): > 100 µM (inactive)
GI50 (NCI/ADR-RES): > 100 µM (inactive)
GI50 (IGROV-1): > 100 µM (inactive)
GI50 (MCF7): > 100 µM (inactive)
GI50 (SK-OV-3): > 100 µM (inactive)
GI50 (DU-145): > 100 µM (inactive)
GI50 (OVCAR-4): > 100 µM (inactive)
GI50 (786-0): > 100 µM (inactive)
GI50 (KM12): > 100 µM (inactive)
GI50 (EKVX): > 100 µM (inactive)
GI50 (NCI-H226): > 100 µM (inactive)
GI50 (Hs-578T): > 100 µM (inactive)
GI50 (Malme-3M): > 100 µM (inactive)
GI50 (SK-MEL-28): > 100 µM (inactive)
GI50 (SF-268): > 100 µM (inactive)
GI50 (A549): > 100 µM (inactive)
GI50 (HL-60): > 100 µM (inactive)
